Laboratory results published in PubChem BioAssay (NCI).
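96-well plates; 48 h exposure; 5 concentrations. Endpoints by linear interpolation between flanking doses. Not reached: highest tested concentration assigned. GI50 = concentration required for 50% inhibition of growth. TGI is the concentration that stops growth completely.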

Experiments:
Assay in all cases: NCI anticancer screen, dose series, 48 h
MOLT-4 leukemia = test system: MOLT-4 leukemia
UO-31 renal = test system: UO-31 renal
MCF7 breast = test system: MCF7 breast
NCI/ADR-RES ovarian = test system: NCI/ADR-RES ovarian
ACHN renal = test system: ACHN renal
LOX IMVI melanoma = test system: LOX IMVI melanoma
OVCAR-5 ovarian = test system: OVCAR-5 ovarian
SK-MEL-5 melanoma = test system: SK-MEL-5 melanoma
MDA-MB-231 breast = test system: MDA-MB-231 breast
CCRF-CEM leukemia = test system: CCRF-CEM leukemia
K-562 leukemia = test system: K-562 leukemia
UACC-257 melanoma = test system: UACC-257 melanoma
EKVX NSCLC = test system: EKVX NSCLC
A549 NSCLC = test system: A549 NSCLC
RXF 393 renal = test system: RXF 393 renal
HL-60(TB) leukemia = test system: HL-60(TB) leukemia
RPMI-8226 leukemia = test system: RPMI-8226 leukemia
MDA-MB-435 = test system: MDA-MB-435
OVCAR-8 ovarian = test system: OVCAR-8 ovarian
PC-3 prostate = test system: PC-3 prostate
DU-145 prostate = test system: DU-145 prostate
IGROV1 ovarian = test system: IGROV1 ovarian
SK-MEL-28 melanoma = test system: SK-MEL-28 melanoma
NCI-H226 lung = test system: NCI-H226 lung
SW-620 colon = test system: SW-620 colon
SF-539 CNS = test system: SF-539 CNS
OVCAR-3 ovarian = test system: OVCAR-3 ovarian
SK-MEL-2 melanoma = test system: SK-MEL-2 melanoma
HS 578T breast = test system: HS 578T breast
HCT-116 colon = test system: HCT-116 colon
HCT-15 colon = test system: HCT-15 colon
A498 renal = test system: A498 renal
SR leukemia = test system: SR leukemia
KM12 colon = test system: KM12 colon
CAKI-1 renal = test system: CAKI-1 renal
MALME-3M melanoma = test system: MALME-3M melanoma
HOP-92 NSCLC = test system: HOP-92 NSCLC
OVCAR-4 ovarian = test system: OVCAR-4 ovarian
SF-295 CNS = test system: SF-295 CNS
U251 CNS = test system: U251 CNS
T-47D breast = test system: T-47D breast
SN12C renal = test system: SN12C renal
NCI-H460 lung = test system: NCI-H460 lung
SK-OV-3 ovarian = test system: SK-OV-3 ovarian
SNB-75 CNS = test system: SNB-75 CNS
HOP-62 NSCLC = test system: HOP-62 NSCLC
HT29 colon = test system: HT29 colon
TK-10 renal = test system: TK-10 renal
BT-549 breast = test system: BT-549 breast
SF-268 CNS = test system: SF-268 CNS
M14 melanoma = test system: M14 melanoma
UACC-62 melanoma = test system: UACC-62 melanoma
HCC-2998 colon = test system: HCC-2998 colon
COLO 205 colon = test system: COLO 205 colon
SNB-19 CNS = test system: SNB-19 CNS
786-0 renal = test system: 786-0 renal
NCI-H522 lung = test system: NCI-H522 lung

## COCCOc1ccc2ncc(C#Cc3cncc(C(=O)Nc4ccc(CN5CCN(C)CC5)c(C(F)(F)F)c4)c3)n2n1
MOLT-4 leukemia
  GI50: 0.696 µM
  TGI: 3.73 µM
UO-31 renal
  GI50: 0.622 µM
  TGI: 3.19 µM
MCF7 breast
  GI50: 0.166 µM
  TGI: 0.968 µM
NCI/ADR-RES ovarian
  GI50: 1.21 µM
  TGI: 3.41 µM
ACHN renal
  GI50: 0.364 µM
  TGI: 2.01 µM
LOX IMVI melanoma
  GI50: 0.367 µM
  TGI: 1.04 µM
OVCAR-5 ovarian
  GI50: 0.663 µM
  TGI: 6.07 µM
SK-MEL-5 melanoma
  GI50: 1.7 µM
  TGI: 7.26 µM
MDA-MB-231 breast
  GI50: 0.274 µM
  TGI: 1.24 µM
CCRF-CEM leukemia
  GI50: 0.7 µM
  TGI: 4.63 µM
K-562 leukemia
  GI50: 0.005 µM
  TGI: 0.937 µM
UACC-257 melanoma
  GI50: 1.2 µM
  TGI: 5.69 µM
EKVX NSCLC
  GI50: 0.951 µM
  TGI: 7.75 µM
A549 NSCLC
  GI50: 0.885 µM
  TGI: 2.61 µM
RXF 393 renal
  GI50: 0.733 µM
  TGI: 1.41 µM
HL-60(TB) leukemia
  GI50: 0.311 µM
  TGI: 1.48 µM
RPMI-8226 leukemia
  GI50: 0.874 µM
  TGI: 2.59 µM
MDA-MB-435
  GI50: 0.421 µM
  TGI: 4.44 µM
OVCAR-8 ovarian
  GI50: 0.874 µM
  TGI: 2.22 µM
PC-3 prostate
  GI50: 1.79 µM
  TGI: 8.29 µM
DU-145 prostate
  GI50: 1.06 µM
  TGI: 4.76 µM
IGROV1 ovarian
  GI50: 0.351 µM
  TGI: 2.35 µM
SK-MEL-28 melanoma
  GI50: 0.676 µM
  TGI: 1.72 µM
NCI-H226 lung
  GI50: 0.271 µM
  TGI: 1.54 µM
SW-620 colon
  GI50: 0.402 µM
  TGI: 1.35 µM
SF-539 CNS
  GI50: 0.209 µM
  TGI: 3.09 µM
OVCAR-3 ovarian
  GI50: 1.09 µM
  TGI: 7.44 µM
SK-MEL-2 melanoma
  GI50: 0.403 µM
  TGI: 1.13 µM
HS 578T breast
  GI50: 0.598 µM
  TGI: 2.64 µM
HCT-116 colon
  GI50: 0.227 µM
  TGI: 1.02 µM
HCT-15 colon
  GI50: 0.549 µM
  TGI: 2.51 µM
A498 renal
  GI50: 1.17 µM
  TGI: 2.25 µM
SR leukemia
  GI50: 0.687 µM
  TGI: 2.48 µM
KM12 colon
  GI50: 0.014 µM
  TGI: 2.72 µM
CAKI-1 renal
  GI50: 0.484 µM
  TGI: 2.92 µM
MALME-3M melanoma
  GI50: 0.22 µM
  TGI: 0.868 µM
HOP-92 NSCLC
  GI50: 0.142 µM
  TGI: 0.628 µM
OVCAR-4 ovarian
  GI50: 0.84 µM
  TGI: 8.45 µM
SF-295 CNS
  GI50: 3.36 µM
  TGI: 12.7 µM
U251 CNS
  GI50: 2.19 µM
  TGI: 10.2 µM
T-47D breast
  GI50: 2.72 µM
  TGI: 12.5 µM
SN12C renal
  GI50: 0.516 µM
  TGI: 3.67 µM
NCI-H460 lung
  GI50: 0.708 µM
  TGI: 1.47 µM
SK-OV-3 ovarian
  GI50: 2.07 µM
  TGI: 6.4 µM
SNB-75 CNS
  GI50: 0.272 µM
  TGI: 1.26 µM
HOP-62 NSCLC
  GI50: 0.997 µM
  TGI: 4.37 µM
HT29 colon
  GI50: 0.372 µM
  TGI: 3.09 µM
TK-10 renal
  GI50: 1.59 µM
  TGI: 5.86 µM
BT-549 breast
  GI50: 1.54 µM
  TGI: 4.28 µM
SF-268 CNS
  GI50: 0.787 µM
  TGI: 2.13 µM
M14 melanoma
  GI50: 0.265 µM
  TGI: 1.13 µM
UACC-62 melanoma
  GI50: 1.5 µM
  TGI: 7.66 µM
HCC-2998 colon
  GI50: 1.18 µM
  TGI: 7.54 µM
COLO 205 colon
  GI50: 0.529 µM
  TGI: 1.54 µM
SNB-19 CNS
  GI50: 3.92 µM
  TGI: 15 µM
786-0 renal
  GI50: 0.802 µM
  TGI: 1.64 µM
NCI-H522 lung
  GI50: 0.62 µM
  TGI: 1.45 µM
